Data reported in patent publication EP3797781A1, “USE OF EC-7072 AND SYNERGIC COMPOSITIONS THEREOF IN TREATMENT OF CHRONIC LYMPHOCYTIC LEUKEMIA” (priority 2019, dated 2021).

What was measured:
[1] = tested on: MEC-1, GRANTA-519, Z-138, JVM-2, CA-46, Ramos, Raji and U266 cell lines; assay: Viability of B-cell malignancy cell lines by DiOC6(3)/PI staining; format: cell-based; settings: 500 nM, 24 hours; n = 3; Figure 5C
Procedure: Cell viability and apoptosis were evaluated by double-staining with the mitochondrial inner transmembrane potential (ΔΨm)-sensitive dye DiOC6(3) (3,3'-dihexyloxacarbocyanine iodide; Sigma-Aldrich) and the exclusion dye propidium iodide (PI; Immunostep), allowing identification of apoptotic [DiOC6(3)^low PI^-] and dead [PI^+] cells as per Proc. Natl. Acad. Sci. U.S.A. (2014) 111(8):3020-3025 and Methods Mol. Biol. (2016) 1419:1-16. Briefly, PBMCs were resuspended in culture medium containing 20 nM DiOC6(3) and incubated for 30 minutes at 37 °C. Then, PI (1 µg/mL) was added and cells were further incubated for 10 minutes at room temperature (RT). Cells were analyzed by flow cytometry considering DiOC6(3)^+PI^- cells as viable. In some experiments, apoptosis was evaluated by staining with Annexin V/PI. […]
Effectiveness of EC-7072 against different B-cell malignancies was assessed by; • (i) incubating primary fibroblasts from healthy donors (n = 4) and HK-2 cells from healthy human adult kidney (n = 3) following treatment with MTA (200 nM) or EC-7072 (200 nM) for 24 hours. […] Cell viability was assessed by DiOC6(3)/PI staining and normalized to control (DMSO) condition to obtain mean percentage of viable [DiOC6(3)^+] cells (Figure 5C).

BCR signaling pathway = assay: Phosphoflow of BCR signaling nodes in isolated leukemia cells; format: cell-based, human
Procedure: Protein phosphorylation levels were evaluated by phosphoflow. Briefly, isolated leukemia cells from patients with CLL were treated with 200 nM EC-7072 or DMSO for 8 or 12 hours. In some experiments, BCR signaling was activated with goat F(ab')2 anti-IgM antibody (10 µg/mL; SouthernBiotech) for 45 minutes. Right afterwards, cells were fixed with 1.8% paraformaldehyde for 10 minutes at RT and permeabilized with 90% ice-cold methanol for 25 minutes at 4 °C. Finally, cells were incubated with specific phospho-antibodies (p-SYK, p-BTK, p-ERK1/2 and p-H2AX from Biolegend, and p-PLCγ2, p-AKT, p-p65 NF-κB and p-STAT3 from BD Bioscience) for 30 minutes at RT and mean fluorescence intensity (MFI) was analyzed by flow cytometry.
The inhibition of the tonic BCR pathway by EC-7072 was evaluated by: • (i) incubating PBMCs from patients with CLL, following treatment with 200 nM EC-7072, for 8 hours. Surface expression of CD79A (Figure 7A), CD79B (Figure 7B) and IgM (Figure 7C) in leukemia cells (n = 5 - 6) was assessed by flow cytometry and the MFI was normalized to the control (DMSO) condition; • (ii) incubating isolated leukemia cells from patients with CLL (n = 10), following treatment with EC-7072 (200 nM), for 8 hours. Phosphorylation levels of p-SYK (Figure 7D), p-BTK (Figure 7E) and p-PLCy2 (Figure 7F) proteins and p-ERK1/2 (Figure 7G), p-AKT (Figure 7H), p-p65 NPκB (Figure 7I) and p-STAT3 (Figure 7J) were evaluated by phosphoflow and the MFI was normalized to the control (DMSO) from each individual patient; • (iii) incubating PBMCs from patients with CLL (n = 8), following treatment with EC-7072 (200 nM), for 8 hours. Viability was determined by DiOC6(3)/PI staining and normalized to the control (DMSO) condition for each individual patient to obtain the mean percentage of viable [DiOC6(3)^+] cells (Figure 7K); • (iv) incubating isolated CLL cells (n = 4) stimulated with CD40L (100 ng/mL) or IL-6 (40 ng/mL) for 15 minutes and detecting respective phosphorylation levels of p65 NF-κB (Figure 7L) and STAT3 (Figure 7M) by phosphoflow to obtain the mean MFI normalized to the control (DMSO) condition for each individual patient; • (v) incubating isolated leukemia cells from 3 patients with CLL, following treatment with 200 nM EC-7072, for 3, 8 and 12 hours. […]
The partial abrogation of EC-7072-induced cell death of primary CLL cells by activation of the BCR was evaluated by: • (i) incubating PBMCs from patients with CLL (n = 15), following treatment with EC-7072 (200 nM) in combination with α-IgM (10 µg/mL), for 24 hours. […]

CO[C@@H]([C@@H]1Cc2cc3cc(O[C@H]4C[C@@H](O[C@H]5C[C@@H](O)[C@H](O)[C@@H](C)O5)[C@H](O)[C@@H](C)O4)c(C)c(O)c3c(O)c2C(=O)[C@H]1O[C@H]1C[C@@H](O[C@H]2C[C@@H](O[C@H]3C[C@](C)(O)[C@H](O)[C@@H](C)O3)[C@@H](O)[C@@H](C)O2)[C@H](O)[C@@H](C)O1)[C@@H](O)C(C)=O [EC-7072, mithramycin SK]
surviving cell fraction of tumor cell lines derived from B-cell hematologic malignancies [1]: significantly reduced the surviving cell fraction
amounts of p-AKT (BCR signaling pathway; 200 nM, 8 hours, n = 10): No marked changes
levels of phosphorylated (p)-SYK, p-BTK and p-PLCγ2 (BCR signaling pathway; 200 nM, 8 hours, n = 10): significant reduction
phosphorylation levels of ERK1/2, p65 NF-κB and STAT3 (BCR signaling pathway; 200 nM, 8 hours, n = 10): significant downregulation
phosphorylation of ERK1/2, AKT, p65 NF-κB and STAT3 ensued by anti-IgM (BCR signaling pathway; EC-7072 200 nM 8 hours, then α-IgM (10 µg/mL) 15 minutes): not significantly reverted
